Assay results from patent US12570606B2, “Myeloperoxidase imaging agents” (The General Hospital Corporation, priority 2016, dated 2026).
Each block holds one molecule with its values, some of them ahead of it.

What was measured:
[1] = target: T1, MPO (Homo sapiens, UniProt P05164); test: MPO-PET matrigel implantation imaging in mice; type: in vivo, mouse; details: for Background, organ uptake and defluorination: matrigel PET imaging in mice
T1 sequence (P05164 49-745): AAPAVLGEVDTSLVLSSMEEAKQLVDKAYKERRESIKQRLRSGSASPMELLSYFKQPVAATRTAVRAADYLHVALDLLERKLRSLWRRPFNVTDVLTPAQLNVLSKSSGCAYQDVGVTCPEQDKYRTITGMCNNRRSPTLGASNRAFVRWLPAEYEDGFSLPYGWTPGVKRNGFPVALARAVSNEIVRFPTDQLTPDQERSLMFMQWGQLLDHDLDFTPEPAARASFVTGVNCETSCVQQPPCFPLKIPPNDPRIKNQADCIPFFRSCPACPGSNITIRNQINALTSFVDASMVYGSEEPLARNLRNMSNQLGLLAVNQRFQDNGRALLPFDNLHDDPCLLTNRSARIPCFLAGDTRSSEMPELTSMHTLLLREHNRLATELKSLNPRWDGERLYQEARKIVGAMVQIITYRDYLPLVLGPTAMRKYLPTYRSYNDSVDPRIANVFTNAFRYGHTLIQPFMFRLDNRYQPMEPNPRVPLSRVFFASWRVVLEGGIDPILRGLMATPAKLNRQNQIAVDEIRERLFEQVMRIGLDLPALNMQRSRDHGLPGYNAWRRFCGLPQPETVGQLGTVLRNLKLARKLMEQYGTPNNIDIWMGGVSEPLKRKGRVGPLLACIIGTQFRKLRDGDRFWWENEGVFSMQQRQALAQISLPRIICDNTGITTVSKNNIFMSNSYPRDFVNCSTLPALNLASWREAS
Protocol: 300 μL of 1:1 mixture of matrigel and minimal essential medium (MEM) containing GOX and/or different concentrations of MPO (0, 15 μL, 30 μL) was injected subcutaneously into the ventral aspect of the thighs of the mouse. After 30 min, 300-600 μCi of MPO Compound 9 was injected intravenously. After 2 h, the mice were scanned using PET scanning.
To validate the efficacy of the MPO PET agents for in vivo applications, matrigel implantation experiments were performed by embedding MPO in matrigel along with glucose oxidase (GOX) as H2O2 donor. Matrigel is a gelatinous protein mixture that is liquid at 0° C. but forms a gel at body temperature while remaining diffusible to molecules from the bloodstream when injected into living animals (see e.g., Chen et al, Radiology, 2006, 240(2):473-481). The MPO/matrigel mixtures were injected subcutaneously to the thighs of the mice followed by injection of the MPO PET tracers 30 min later. […] The signal of MPO side was around 1.7 fold higher compared to that of control side.
To verify the specificity of Compound 9 over MPO, different concentrations of MPO (0, 15 μL, 30 μL) were embedded in matrigel for the implantation experiments.

[2] = test system: MPO activity; test: Irritant contact dermatitis (PMA) in vivo FRI; design: species or system mouse; details: wildtype mice
Protocol: Female C57Bl/6J (wildtype, Jackson laboratories, Bar Harbor, Me.) and MPO-knockout (KO, Jackson laboratories) mice were treated topically with 0.08 μmol Phorbol 12-myristate 13-acetate (PMA, Sigma, St. Louis, Mo.) on one hind-paw and with vehicle on the other to induce irritant contact dermatitis. This model is well described in the literature and triggers rapid inflammation with influx of neutrophils into the skin. 6 hours after induction, mice were injected intravenously with either 2 nmol of Compound 3 or the non-specific analogue, Compound 18. 1 hour later, 2.5 μg SA-647 was injected intravenously to bind to the biotinylated Compound 3. Mice underwent in vivo imaging using a dedicated in vivo FRI system as described above in Example 11.

[3] = target: T2, MPO (Mus musculus, UniProt P11247); test: CFA paw inflammation PET imaging and treatment by MPO inhibitor PF-1355; type: in vivo; design: from tissue; host or cells: inflamed forepaw of living mice (CFA)
T2 sequence (P11247 139-718): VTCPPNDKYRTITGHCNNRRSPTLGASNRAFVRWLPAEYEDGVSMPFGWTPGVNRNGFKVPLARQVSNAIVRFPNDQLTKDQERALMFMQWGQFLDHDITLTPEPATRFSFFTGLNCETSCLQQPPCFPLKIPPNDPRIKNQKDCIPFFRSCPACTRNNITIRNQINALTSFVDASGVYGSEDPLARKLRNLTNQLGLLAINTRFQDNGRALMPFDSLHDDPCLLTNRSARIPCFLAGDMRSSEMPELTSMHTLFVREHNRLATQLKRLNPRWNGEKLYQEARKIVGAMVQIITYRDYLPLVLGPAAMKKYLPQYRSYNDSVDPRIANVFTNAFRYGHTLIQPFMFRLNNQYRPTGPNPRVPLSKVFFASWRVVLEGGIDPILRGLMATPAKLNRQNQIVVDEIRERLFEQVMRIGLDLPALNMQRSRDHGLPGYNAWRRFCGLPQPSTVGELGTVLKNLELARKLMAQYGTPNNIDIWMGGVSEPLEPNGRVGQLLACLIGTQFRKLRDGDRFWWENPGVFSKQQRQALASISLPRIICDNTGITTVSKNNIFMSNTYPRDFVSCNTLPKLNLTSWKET
Protocol: Each pair contained one treated and one untreated, number of pairs, n=3. The 1/1 emulsion of CFA/PBS (40 μL) was injected subcutaneously on the dorsal side of one forepaw under isoflurane anesthesia, and PBS (40 μL) was injected on the other forepaw as control. After 1 h, the treated group was given PF-1355 (50 mg/kg) by gavage, then treated every 6 h for another 3 times, and the control group was treated with vehicle (10 mL/kg) accordingly. After 24 h, 300-600 uCi of Compound 9 was injected intravenously. After another 2 h, each pair of the mice was scanned side by side.
After validating the efficacy of the MPO Compound 9 in matrigel experiments, the specificity of the agent in inflammation was investigated. Complete Freund's Adjuvant (CFA) or its emulsion can cause inflammation when injected subcutaneously to the animal. The CFA emulsion was injected to one dorsal side of the forepaw of the mouse and the other side was injected with PBS. After 24 h, Compound 9 was injected intravenously and scanned 2 h after injection. […] To further verify the specificity of the MPO Compound 9, the mice were treated with MPO inhibitor PF-1355 1 h after CFA emulsion injection and continuously every 6 h afterwards for 4 times before injecting the Compound 9. The control group was treated with vehicle after CFA injection. Then each pair of the mice from treated and untreated groups were scanned.

SMILES: O=C(Cc1c[nH]c2ccc(O)cc12)NC(Cc1c[nH]c2ccc(O)cc12)C(=O)NCCCCCC[18F] (centres unmarked) [Compound 5]
Background, organ uptake and defluorination [1]: high heart and liver uptake and high background were observed from defluorination

SMILES: O=C(CCCC[C@@H]1SC[C@@H]2NC(=O)N[C@@H]21)N[C@@H](Cc1c[nH]c2ccccc12)C(=O)NCCc1c[nH]c2ccccc12 [Compound 18, N—((S)-1-((2-(1H-indol-3-yl)ethyl)amino)-3-(1H-indol-3-yl)-1-oxopropan-2-yl)-5-((3aS,4S,6aR)-2-oxohexahydro-1H-thieno[3,4-d]imidazol-4-yl)pentanamide]
Fluorescence intensity, PMA-treated hind-paw [2]: 50.1±5.8 RFU | Fluorescence intensity, vehicle-treated hind-paw [2]: 28.4±5.5 RFU

PET signal of MPO side ([1]; matrigel MPO thigh vs control thigh): low signal | Background, organ uptake and defluorination [1]: high heart uptake
SMILES: O=C(NC(Cc1c[nH]c2ccc(O)cc12)C(=O)NCCc1c[nH]c2ccc(O)cc12)c1ccc([18F])cc1 (centres unmarked) [Compound 7]

Ratio of PF-1355 treated to untreated ([3]; mean of three pairs): .410 | % Inhibition ([3]; mean of three pairs, PF-1355 50 mg/kg by gavage, Compound 9 PET): 59% | Compound 9 uptake in inflamed paw, PF-1355 treated ([3]; mean of three pairs, PF-1355 50 mg/kg by gavage): .0622 SUV | Compound 9 uptake in inflamed paw, PF-1355 treated ([3]; mouse pair 1, PF-1355 50 mg/kg by gavage): .0555 SUV | Compound 9 uptake in inflamed paw, PF-1355 treated ([3]; mouse pair 2, PF-1355 50 mg/kg by gavage): .0736 SUV | Compound 9 uptake in inflamed paw, PF-1355 treated ([3]; mouse pair 3, PF-1355 50 mg/kg by gavage): .0575 SUV
SMILES: COc1ccc(OC)c(-c2cc(=O)[nH]c(=S)n2CC(N)=O)c1 [PF-1355]
